# US9290453B2 (Merck Sharp & Dohme Corp., priority 2010, dated 2016)
# Molecular target: T1, hCRTH2 (Homo sapiens, UniProt Q9Y5Y4)
# T1 construct: expressed in transfected cells; host or cells: HEK (human embryonic kidney) cells expressing hCRTH2
# T1 sequence (Q9Y5Y4 1-395): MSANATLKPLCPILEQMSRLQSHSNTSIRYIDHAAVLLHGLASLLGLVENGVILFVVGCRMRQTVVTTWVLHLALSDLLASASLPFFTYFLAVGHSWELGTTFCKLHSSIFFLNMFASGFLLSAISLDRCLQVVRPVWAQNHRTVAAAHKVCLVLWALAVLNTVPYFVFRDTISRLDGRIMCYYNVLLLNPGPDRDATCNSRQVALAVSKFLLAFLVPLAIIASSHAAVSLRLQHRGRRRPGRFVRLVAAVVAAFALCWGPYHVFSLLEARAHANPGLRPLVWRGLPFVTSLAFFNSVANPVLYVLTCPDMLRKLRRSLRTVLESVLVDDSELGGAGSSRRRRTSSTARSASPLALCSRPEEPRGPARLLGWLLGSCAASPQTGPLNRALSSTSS
# Assay: Radioligand Binding Assay B (scintillation proximity assay, [3H]-PGD2, HEK-hCRTH2 membranes)
# Conditions: Table B, Radioligand Binding Assay B (SPA), rated A-D
# Method: Radioligand binding also was performed using scintillation proximity assay (SPA) technology in a similar way as described above in Radioligand Binding Assay A with minor modification. Assays were done at room temperature in 10 mM HEPES pH 7.4, 1 mM EDTA containing 2 mM MnCl2 and 16 nM [^3H]-PGD2 (PerkinElmer, Waltham, Mass.) (164 Ci mmol^−1), in a final volume of 0.05 mL. Competing ligands were diluted in dimethylsulfoxide (Me2SO) and added using very low volumes (50 nL). The reaction was initiated by the addition of a mixture of 3.52 μg of membrane protein prepared from a human embryonic kidney (HEK)-hCRTH2 cell line adhered to 140 ug of wheatgerm agglutinin SPA beads (PerkinElmer). Total and non-specific binding were determined in the absence and the presence of 10 μM of a CRTH2 antagonist, respectively. The reaction was routinely conducted for 60 min at room temperature followed by centrifugation for 5 minutes at 1000 RPM. The radioactivity was measured with a TopCountNXT (PerkinElmer). Results determined using the SPA-based assay were similar to those from the filtration binding assay.
row,Structure (SMILES),Ki [nM]
1,"N#Cc1ccccc1N1CCN(C(=O)c2ccc3nc(-c4ccccc4)c(CCCCC(=O)O)cc3c2)CC1 [Compound 1AZ, 5-(6-(4-(2-cyanophenyl)piperazine-1-carbonyl)-2-phenylquinolin-3-yl)pentanoic acid]",2.1 to 20
2,"O=C(O)CCCCc1cc2cc(C(=O)N3CCN(c4ccccn4)CC3)ccc2nc1-c1ccccc1 [Compound 1AW, 5-(2-phenyl-6-(4-(pyridin-2-yl)piperazine-1-carbonyl)quinolin-3-yl)pentanoic acid]",20.1 to 200
3,"CC(C)(NC(=O)c1ccc2nc(-c3ccccc3)c(CCCCC(=O)O)cc2c1)c1ccc(F)cc1 [Compound 1AT, 5-(6-((2-(4-fluorophenyl)propan-2-yl)carbamoyl)-2-phenylquinolin-3-yl)pentanoic acid]",20.1 to 200

# Other lines, results leading:
row,Ki [nM],Structure (SMILES)
1,2.1 to 20,"CC1(C)CCC(NC(=O)c2ccc3nc(-c4ccc(Cl)cc4)c(CCCCC(=O)O)cc3c2)c2ccccc21 (centres unmarked) [Compound 5Bi, 5-(2-(4-chlorophenyl)-6-((4,4-dimethyl-1,2,3,4-tetrahydronaphthalen-1-yl)carbamoyl)quinolin-3-yl)pentanoic acid]"
2,2.1 to 20,"COc1ccccc1C1CCN(C(=O)c2ccc3nc(-c4ccc(F)cc4)c(CCCCC(=O)O)cc3c2)CC1 [Compound 5AP, 5-(2-(4-fluorophenyl)-6-(4-(2-methoxyphenyl)piperidine-1-carbonyl)quinolin-3-yl)pentanoic acid]"
